Results from patent publication US20060068012A1, “Process for preparing poly (vinyl alcohol) drug delivery devices with humidity control” (Bausch & Lomb Incorporated, priority 2004, published 2006).

Test: thermal stability of the medicament at poly(vinyl alcohol) curing temperature
Type: physicochemical
Details: heating during curing of poly(vinyl alcohol)
Description: Optionally, the temperature proximate the first drug delivery device and the temperature proximate the second drug delivery device is a minimum of about 120° C. and a maximum of about 210° C. In an embodiment, the temperature proximate the first drug delivery device and the temperature proximate the second drug delivery device is a minimum of about 125° C., about 130° C., about 135° C. or about 140° C. and/or a maximum of about 210° C., about 200° C., about 180° C., about 170° C., about 150° C. or about 140° C. The desired temperature for curing the poly(vinyl alcohol) is dependent upon several factors. If a temperature is selected below about 120° C., the poly(vinyl alcohol) will not cure effectively. If the temperature is above about 210° C., decomposition of the poly(vinyl alcohol) will occur. If the poly(vinyl alcohol) is cured in the presence of the medicament, the stability of the medicament must be considered. For example, flucinolone acetonide begins to decompose above a temperature of about 165° C. Thus, it is desired that a temperature for curing poly(vinyl alcohol) in the presence of flucinolone acetonide be in the range of about 120° C. to about 150° C. and preferably about 135° C.

temperature above which the medicament begins to decompose: > 165 °C
SMILES: CC1(C)O[C@@H]2C[C@H]3[C@@H]4C[C@H](F)C5=CC(=O)C=C[C@]5(C)[C@@]4(F)[C@@H](O)C[C@]3(C)[C@]2(C(=O)CO)O1 [flucinolone acetonide]
